In patent US10464920B2, “Vicinal primary diamines associated with metal and/or free radical chelation motifs, and active against carbonyl and oxidative stress, and use thereof” (UNIVERSITE AMIENS PICARDIE JULES VERNE, priority 2015, dated 2019):

Assays:
[1] = Formation of adducts with MGO, kinetic study by HPLC; format: physicochemical; settings: compound 10 mM, MGO 20 mM, 37° C.; for disappearance of the free scavenger to the benefit of adducts with the MGO: after 15 min of incubation
Description: The compounds to be tested are incubated at 37° C. in the presence of MGO or of MDA. A kinetic study aiming to report on the formation of adducts with the MGO or MDA is then carried out via HPLC analysis.
The compounds to be tested (30 μmol) are dissolved in PBS (1.5 mL). An aqueous solution (qsp 1.25 mL) of MGO at 40% in water (250 μmol) is then prepared and in parallel, MDA bis-(diOEt)-acetal (250 μmol) is set to react with a solution of HCl 1N (2 eq) in water (qsp 1.25 mL) for 1 h at room temperature. An aqueous solution of NaOH 0.05N is also required to neutralise the reaction medium (5 mL).
The solution of the compound to be tested (625 μL—final concentration in the medium=10 mM) is then set to react with the solution of MGO or of MDA prepared extemporaneously (125 μL—final concentration in the medium=20 mM) in the presence of NaOH 0.05 N (0.5 mL).
The various mixtures are then incubated in the oven at 37° C. for 24 h.
A sampling of each mixture (100 μL) is taken at regular intervals of time (0.25; 0.5; 1; 5 and 24 h) and stored at −20° C. in order to stop the reaction. After dilution in a MeCN/H2O 98:2 mixture at room temperature, the HPLC analysis is carried out on a Shimadzu LCMS-2020 apparatus (UV chromatogram at 190 nm and mass spectrum in positive electrospray ionisation mode (ESI+)) after separation on the Waters Acquity column using a gradient of solvents H2O+HCOOH 0.1%/MeCN+HCOOH 0.1% (98/2 for 2 min, then 55/45 for 2 min and 45/55 for 3 min) with a flow rate of 0.3 mL/min at 40° C. and an injection of volume of 1 (“detection mode: scan, interface voltage: tuning file, DL voltage: 100 V, Q-array DC: 40 V, Q-array RF: 40 V”). A blank is first of all carried out using a solution containing the reaction medium without scavenger. Then, a free scavenger solution at 10 mM is used as a negative control and the carnosine as a reference of the literature. The proportion of adducts formed with the MGO or MDA (generally, tR=4.1 to 6.8 min) is then measured in relation to the quantity of remaining free scavenger (generally, tR=0.8 to 4.6 min) after measurement of the area under the curve of the corresponding peaks on the UV spectrum (measurements taken for a representative sample).

[2] = test system: murine endothelial brain cells (bEnd.3); experiment: Cytotoxicity, cellular viability (CCK-8/WST-8) on bEnd.3; format: cell-based; settings: mouse
Description: (§1) The cellular viability is evaluated by a colorimetric method based on the detection of the conversion of a salt of the tetrazolium (WST-8) by the metabolically active cells (CCK-8 kit, Sigma, Lyons, France) (Molecules, 2014, 19(8), 12048-12064; J. Pharmacol. Toxicol. Methods., 2007, 56(1), 58-62). Living cells have mitochondrial dehydrogenases that reduce the WST-8 (2-(2-methoxy-4-nitrophenyl)-3-(4-nitrophenyl)-5-(2,4-disulfophenyl)-2H-tetrazolium), monosodium salt) to formazan of an orange colour, which dissolves directly in the culture medium in the presence of 1-Methoxy PMS (1-methoxy-5-methylphenazinium methyl sulphate). After an incubation for 1 h at 37° C., the absorbance of the formazan is measured at 450 nm. The absorbance is directly proportional to the number of living cells.
(§2) Briefly, the cells are inoculated in 96-well plates at a rate of 5.10^3 cells per well in 100 μL of the suitable medium until subconfluence. The cells are then washed with D-PBS, then treated with various concentrations (10 μM, 100 μM) of the products to be tested in triplicates for 24 and 48 h. A positive control is carried out with 10% of DMSO. The CCK-8 (10 μL) solution is then added to each well for an incubation for 1 h at 37° C. The measurement of the absorbance is taken at 450 nm using a Perkin Elmer 2103 Envision® microplate reader.
(§3) The viability of the cells is expressed as a % of the control (untreated cells) by the mean±standard deviation of triplicates forming a representative experiment or of three independent experiments conducted in triplicate.

[3] = test system: human fibroblasts (MRC-5); experiment: Cytotoxicity, cellular viability (CCK-8/WST-8) on MRC-5; format: cell-based
Description: as §1, §2, §3

[4] = ORACFL test (Oxygen Radical Absorbance Capacity) using fluorescein/AAPH; format: physicochemical; settings: compounds at 10 μM; for ORACFL: mean ± SEM of three independent experiments in triplicate
Description: The antioxidant properties of the compounds according to the invention were evaluated using a ORACFL test using fluorescein (J. Agric. Food Chem., 2004 52, 48-54; J. Agric. Food Chem., 2005, 53, 4290-4302). As such, peroxide radicals, generated in the presence of AAPH (2,2′-azobis(2-methylpropionamidine)dihydrochloride) at 37° C., react with this fluorescent sensor in order to give a non-fluorescent product. The protective effect of the test compounds can then be determined by following the decay curve of the fluorescence of the fluorescein over time and be measuring the area under the curve (AUC) of the sample in relation to that of a control corresponding to an absence of antioxidant.
The trolox (6-hydroxy-2,5,7,8-tetramethylchroman-2-carboxylic acid), a water-soluble analogue of vitamin E, is used as a standard for calculating the antioxidant capacity (ORACFL) of the compounds tested at 10 μM, expressed in […] of tested compound. This value is as such obtained using the straight-line calibration equation giving the area under the curve according to the various concentrations of trolox (Bioorg. Med. Chem., 2015, 23, 1135-1148) (FIG. 11).
A solution of fluorescein (FL) (12 nM; 150 μL) is introduced into a black 96-well plate (Dutscher, Brumath, France). The compounds to be tested (1-20 μM; 25 μL) or trolox (1-50 μM; 25 μL) dissolved in D-PBS are added into each well. After equilibration of the plate during an incubation at 37° C. for a minimum of 30 min, the radical reactions are initiated using a solution of AAPH prepared extemporaneously (30 mM; 25 μL). The fluorescence (λEx: 485 nm; λEm: 520 nm) is measured every 90 seconds for 60 cycles using a temperature-controlled Tecan Infinite® 200 PRO microplate reader (measurements taken in triplicates during three independent experiments).

[5] = MRC-5, 10 μM, 24 h of treatment
[6] = MRC-5, 10 μM, 48 h of treatment
[7] = MRC-5, 100 μM, 24 h of treatment
[8] = MRC-5, 100 μM, 48 h of treatment

| Structure (SMILES) | disappearance of the free scavenger to the benefit of adducts with the MGO [1] | viability of the cells as a percentage of the untreated cells ([2]; 24 h, 10 μM) [%] | viability of the cells as a percentage of the untreated cells ([2]; 24 h, 100 μM) [%] | viability of the cells as a percentage of the untreated cells ([2]; 48 h, 10 μM) [%] | viability of the cells as a percentage of the untreated cells ([2]; 48 h, 100 μM) [%] | viability of the cells as a percentage of the untreated cells [3, 5] [%] | viability of the cells as a percentage of the untreated cells [3, 6] [%] | viability of the cells as a percentage of the untreated cells [3, 7] [%] | viability of the cells as a percentage of the untreated cells [3, 8] [%] | ORACFL [4] [μmol TE/μmol] | antioxidant capacity (ORACFL), in words [4] | adducts with the MGO with regards to the free scavenger ([1]; after 5 h of reaction, no HPLC separation, trend) |
| --- | --- | --- | --- | --- | --- | --- | --- | --- | --- | --- | --- | --- |
| NCC(N)CCCNC(=O)CCn1cccc(O)c1=O (stereo not drawn) [Compound 37a, N-(4,5-diaminopentyl)-3-(3-hydroxy-2-oxopyridin-1(2H)-yl)propanamide] | almost total disappearance of the free scavenger | 97 | 103 | 99 | 93 | 112 | 107 | 124 | 105 | 0.58 ± 0.02 | – | – |
| NCC(N)CCCCNC(=O)c1cc(O)c(O)c(O)c1 (stereo not drawn) [Compound 30b, N-(5,6-diaminohexyl)-3,4,5-trihydroxybenzamide] | – | 93 | 99 | 92 | 87 | 98 | 92 | 101 | 100 | 2.59 ± 0.35 | most active | – |
| NCC(N)CCCCNC(=O)CCn1cccc(O)c1=O (stereo not drawn) [Compound 37b, N-(5,6-diaminohexyl)-3-(3-hydroxy-2-oxopyridin-1(2H)-yl)propanamide] | almost total disappearance of the free scavenger | 126 | 115 | 101 | 100 | 113 | 103 | 113 | 101 | 0.99 ± 0.09 | – | – |
| NCC(N)CCC(=O)NCCCn1cccc(O)c1=O (stereo not drawn) [Compound 37c, 4,5-diamino-N-(3-(3-hydroxy-2-oxopyridin-1(2H)-yl)propyl)pentanamide] | almost total disappearance of the free scavenger | 99 | 85 | 86 | 84 | 97 | 94 | 89 | 90 | 1.03 ± 0.03 | most active | – |
| COc1cc(/C=C/C(=O)N2CCN(C(=O)CCC(N)CN)CC2)ccc1O (stereo not drawn) [Compound 29a, (E)-4,5-diamino-1-(4-(3-(4-hydroxy-3-methoxyphenyl)acryloyl)piperazin-1-yl)pentan-1-one] | – | 98 | 87 | 90 | 83 | 103 | 104 | 99 | 103 | 2.05 ± 0.23 | – | majority presence of AdB |
